From US7060290B1, “Phosphocholine linked prodrug derivatives” (Supergen, Inc., priority 1999, dated 2006)
“Also recorded” adds a separate entry of the source.

Assays:
[1] = system: cutaneous hypersensitivity immune response; assay: DNCB-induced cutaneous contact hypersensitivity (ear swelling) in mice; type: in vivo, mice (Balb/c); details: for Effect on DNCB-induced cutaneous hypersensitivity immune response: 100 μg/day/mouse subcutaneously, twelve-day study, ear rechallenge with 1% DNCB, swelling on days 7–12; for Effect of dexamethasone on the response to the hormone: co-administered with dexamethasone, days 7–12
Description: The effects of DHEA-PC on cutaneous contact hypersensitivity was studied. In this study, mice (Balb/c) were immunologically challenged with DNCB (2% in ethanol) applied to a 2 cm area on the back. The steroid was injected subcutaneously (100 μg/day/mouse) throughout the twelve-day study period. Ears were rechallenged with DNCB (1% in ethanol) on days 7–12 and swelling was measured daily in order to evaluate the effect on the immune system.

[2] = system: enzyme on lymphocyte cell membrane that cleaves phosphocholine; assay: Lymphocyte cell membrane enzyme that cleaves phosphocholine from other compounds; type: cell-based; details: lymphocytes; data not shown
Excerpt: The conjugated therapeutic agents will be at least ten times more water soluble then the original alcohol. This will increase their bioavailability and decrease their metabolism to, e.g., the 3-glycoside in the case of steroids, which should be a major excretion pathway. The decreased glycoside formation will be caused by the presence of the phosphoester at that site. The derivative is not expected to be active prior to hydrolysis of the phospholipid group. […] The activity of this enzyme is stimulated ten-fold by TGF-α (data not shown). Without wishing to be bound by theory, it is believed that use of phospholipid-conjugated antibiotics of the present invention will lead to high concentrations of active agents at the site of an infection by the following mechanism. Lymphocytes are attracted to the site of an infection or inflammation where they release TGF-α, which, in turn, stimulates phospholipid hydrolysis in other subtypes. This same process will lead to local release of an active form of the antibiotic from the phospholipid diester conjugate. Because of the response of the enzyme to local concentrations of TGF-α, there should be a correspondingly high local concentration of the antibiotic. This will lead to effective therapy and lower toxicity.

[3] = system: neutral sphingomylenase; assay: Hydrolysis of DHEA-PC by neutral sphingomylenase; type: biochemical
Description: DHEA-phosphocholine (DHEA-PC) was synthesized by sequential reaction of DHEA, choline, and water with phosphorous oxychloride. The synthetic product had the same HPLC retention time and the same mass-spectrum as did the endogenous, actual compound. […] When human serum extracts were analyzed, mass fragments were detected at the same retention time as synthetic material.

[4] = Water/benzene extraction of the tritiated DHEA-phosphocholine reaction product, phases counted by scintillation; type: physicochemical
Description: A dehydroepiandrosterone(DHEA)-phosphocholine derivative was synthesized as follows: 1 mg of phosphocholine (calcium salt; Sigma Chemical, St. Louis, Mo.) was dissolved in 0.5 ml of formamide (Cat # S-7503; Lot # 55HO257; Sigma Chemical) and 0.5 ml of pyridine (Cat # P-4036; Lot # 55H1489; Sigma Chemical). 0.025 mCi of (1,2,6,7 ^3H(n)-Dehydroepiandrosterone (Cat # NET814; Lot # 3146097; 89.2 Ci/mmol; Dupont, NEN Products, Boston, Mass.) in 0.025 ml of ethanol was added. The reaction was catalyzed by the addition (as the dry solid) of 5 mg of dicyclohexylcarbodiimide (Cat # D-3129; Lot # 34hO647; Sigma Chemical). The reaction mixture was incubated overnight at room temperature. In the morning, 9 ml of water was added and the mixture extracted 3 times with 10 ml portions of benzene. The benzene extracts were combined and aliquots of both phases were counted in a scintillation counter. The results are set forth below:
The aqueous layer was re-extracted with benzene. The second benzene extraction yielded 272 cpm (0.01 M1) as a confirmation.
Free DHEA starting material would have been extracted quantitatively into benzene with this protocol.

[5] = J. Med. Chem. 39:2156–2169, 1996; cited from earlier work
[6] = First-pass inactivation in the liver after oral administration; details: phosphocholine-derivatized form; stated as believed
Excerpt: Subsequently, only a fraction of a percent of the administered drug is biologically available for function. […] When the phosphocholine moiety is removed by an esterase, such as phospholipase C, sphingomyelinase, etc., then the parent compound will be available for binding and function in the target tissue. Glucuronidation would only occur on its return to the liver after removal of the phosphocholine moiety.

Compound: C[C@]12CC[C@H](OS(=O)(=O)O)CC1=CC[C@@H]1[C@@H]2CC[C@]2(C)C(=O)CC[C@@H]12 [DHEA-sulfate]
- Effect on DNCB-induced cutaneous hypersensitivity immune response [1]: similar, high level response
- Effect of dexamethasone on the response to the hormone [1]: not suppressed by dexamethasone

Compound: C[C@]12CC[C@H](O)CC1=CC[C@@H]1[C@@H]2CC[C@]2(C)C(=O)CC[C@@H]12 [DHEA, dehydroepiandrosterone]
- Effect on DNCB-induced cutaneous hypersensitivity immune response [1]: similar, high level response
- Effect of dexamethasone on the response to the hormone [1]: not suppressed by dexamethasone

Compound: TGF-α: factor released by lymphocytes that stimulates phospholipid hydrolysis
- Stimulation of the activity of the phosphocholine-cleaving enzyme [2]: ten-fold

Compound: C[C@]12CC[C@H](OP(=O)([O-])OCC[N+](C)(C)C)CC1=CC[C@@H]1[C@@H]2CC[C@]2(C)C(=O)CC[C@@H]12 [DHEA-PC, DHEA-3-Phosphocholine]
- Effect on DNCB-induced cutaneous hypersensitivity immune response [1]: potentiated dinitrochlorobenzene-induced sensitization; also recorded: enhanced the cutaneous hypersensitivity immune response
- Effect of dexamethasone on the response to the hormone [1]: not suppressed by dexamethasone
- Hydrolysis by neutral sphingomylenase [3]: hydrolyzed
- Radioactivity in second benzene extraction ([4]; 0.01 M1, re-extraction of the aqueous layer with benzene): 272 cpm
- Radioactivity in aqueous phase ([4]; 0.01 ml aliquot, after 3 extractions with 10 ml benzene, 3H label): 10,729 cpm
- Radioactivity in benzene phase ([4]; 0.01 ml aliquot, combined benzene extracts, 3H label): 1,121 cpm
- Phase in which the reaction product stays (hydrophilic character) ([4]; water/benzene, free DHEA would have been extracted quantitatively into benzene): remains in the aqueous phase

Compound: O=C1N(Cc2ccc(CO)cc2)[C@H](Cc2ccccc2)[C@H](O)[C@@H](O)[C@@H](Cc2ccccc2)N1Cc1ccc(CO)cc1 [DMP-323]
- Aqueous solubility [5]: low

Compound: C[C@]12CC[C@@H](OP(=O)([O-])OCC[N+](C)(C)C)C[C@H]1CC[C@@H]1[C@@H]2CC[C@]2(C)C(=O)CC[C@@H]12
- Fraction not metabolized at each pass through the liver [6]: about 80%
